# Legend:
# [1] = target: human cathepsin K (UniProt P43236); assay: Cathepsin K Assay (hrbCat K); type: biochemical; conditions: Z-Leu-Arg-AMC substrate, pH 5.5, 15 min preincubation; read-out: hrbCat K (IP (nM))
# In short: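 Human cathepsin K (0.4 nM) was preincubated 15 min at room temperature with compound in 50 mM MES pH 5.5, 2.5 mM EDTA, 2.5 mM DTT and 10% DMSO. Inhibition was fitted to a dose-response model.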
# [2] = target: T1, human cathepsin F (Homo sapiens, UniProt Q9UBX1); assay: Cathepsin F assay (hCat F); type: biochemical; conditions: Z-Phe-Arg-AMC substrate, pH 5.5, 15 min preincubation; read-out: hCat F (IP (nM))
# T1 sequence (Q9UBX1 271-484): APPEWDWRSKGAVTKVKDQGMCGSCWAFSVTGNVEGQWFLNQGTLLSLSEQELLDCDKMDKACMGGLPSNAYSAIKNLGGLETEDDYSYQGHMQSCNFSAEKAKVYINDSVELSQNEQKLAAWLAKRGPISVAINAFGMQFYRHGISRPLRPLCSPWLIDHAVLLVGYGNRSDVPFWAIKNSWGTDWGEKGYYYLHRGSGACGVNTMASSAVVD
# In short: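 Enzyme (10 nM) was preincubated 15 min at room temperature with compounds (1/3 DMSO dilution series, 500–0.025 μM) in 50 mM MES pH 5.5, 2.5 mM EDTA, 2.5 mM DTT, 10% DMSO. Z-Phe-Arg-AMC (8 μM) was added and AMC fluorescence (Ex 360/Em 460 nm) followed for 20 min. % inhibition was fitted to dose-response curves.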
Structure (SMILES),IC50 [1] [nM],IC50 [2] [nM]
"N#Cc1cc(F)ccc1-c1nc([C@@H]2CCCC[C@H]2C(=O)NC2(C#N)CC2)c(-c2ccc(N3CCS(=O)(=O)CC3)cc2)s1 [Example 61, (1R,2R)-2-(2-(2-cyano-4-fluorophenyl)-5-(4-(1,1-dioxidothiomorpho-lino)phenyl)thiazol-4-yl)-N-(1-cyanocyclopropyl) cyclohexanecarbox-amide]",5.9,7650
"N#CC1(NC(=O)[C@@H]2CCCC[C@H]2c2nc(-c3ccc(Cl)cn3)sc2-c2ccc(N3CCS(=O)(=O)CC3)cc2)CC1 [Example 41, (1R,2R)-2-(2-(5-chloropyridin-2-yl)-5-(4-(1,1-dioxidothiomorpho-lino)phenyl)thiazol-4-yl)-N-(1-cyanocyclopropyl) cyclohexanecarbox-amide]",1.2,945
"N#CC1(NC(=O)[C@@H]2CC(F)(F)CC[C@H]2c2nc(CC(F)(F)F)sc2-c2ccc(N3CCS(=O)(=O)CC3)cc2)CC1 [Example 21, (1R,2R)-N-(1-cyanocyclopropyl)-2-(5-(4-(1,1-dioxidothiomorpho-lino)phenyl)-2-(2,2,2-trifluoroethyl)thia-zol-4-yl)-5,5-difluorocyclohexane-carboxamide]",1.6,314
"CN(CC(F)(F)F)c1nc([C@@H]2CCCC[C@H]2C(=O)NC2(C#N)CC2)c(-c2ccc(N3CCS(=O)(=O)CC3)cc2)s1 [Example 152, (1R,2R)-N-(1-cyanocyclopropyl)-2-(5-(4-(1,1-dioxidothiomorpho-lino)phenyl)-2-(methyl(2,2,2-trifluoroethyl)amino)thiazol-4-yl)cyclohexane-carboxamide]",7,≥ 10000
"N#CC1(NC(=O)[C@@H]2CC3CC3C[C@H]2c2nc(-c3cncc(F)c3)sc2-c2ccc(N3CCS(=O)(=O)CC3)cc2)CC1 (single isomer, unassigned) [Example 111, (1S or 1R,3R,4R,6R or 6S)-N-(1-cyanocyclopropyl)-4-(5-(4-(1,1-dioxidothiomorpho-lino)phenyl)-2-(5-fluoropyridin-3-yl)thiazol-4-yl)bicyclo[4.1.0] heptane-3-carboxamide]",0.7,225
"CC1(c2nc([C@@H]3CCCC[C@H]3C(=O)NC3(C#N)CC3)c(-c3ccc(N4CCS(=O)(=O)CC4)cc3)s2)CCOCC1 [Example 133, (1R,2R)-N-(1-cyanocyclopropyl)-2-(5-(4-(1,1-dioxidothiomorpho-lino)phenyl)-2-(4-methyltetrahydro-2H-pyran-4-yl)thiazol-4-yl)cyclohexane-carboxamide]",4.9,≥ 10000
"N#CC1(NC(=O)[C@@H]2CCC(F)(F)C[C@H]2c2nc(-c3cncc(Cl)c3)sc2-c2ccc(N3CCS(=O)(=O)CC3)cc2)CC1 [Example 115, (1R,2R)-2-(2-(5-chloropyridin-3-yl)-5-(4-(1,1-dioxidothiomorpho-lino)phenyl)thiazol-4-yl)-N-(1-cyanocyclopropyl)-4,4-difluorocyclohexane-carboxamide]",2.2,2660
"N#CC1(NC(=O)[C@@H]2CC(F)(F)CC[C@H]2c2nc(-c3ccc(F)cc3)sc2-c2ccc(C(=O)N3CCC(O)CC3)cc2)CC1 [Example 31, (1R,2R)-N-(1-cyanocyclopropyl)-5,5-difluoro-2-(2-(4-fluorophenyl)-5-(4-(4-hydroxypiperidine-1-carbonyl)phenyl)thi-azol-4-yl)cyclohexane-carboxamide]",3.4,73
"N#CC(CC(F)(F)F)NC(=O)[C@@H]1CCCC[C@H]1c1nc(-c2ccc(F)cn2)sc1-c1ccc(N2CCS(=O)(=O)CC2)cc1 (single isomer, unassigned) [Example 193, (1R,2R)-N-((R or S)-1-cyano-3,3,3-trifluoropropyl)-2-(5-(4-(1,1-dioxidothiomorpho-lino)phenyl)-2-(5-fluoropyridin-2-yl)thiazol-4-yl)cyclohexane-carboxamide]",0.6,21
"N#CC1(NC(=O)[C@@H]2CC(F)(F)CC[C@H]2c2nc(-c3cccnc3)sc2-c2ccc(N3CCS(=O)(=O)CC3)cc2)CC1 [Example 49, (1R,2R)-N-(1-cyanocyclopropyl)-2-(5-(4-(1,1-dioxidothiomorpho-lino)phenyl)-2-(pyridin-3-yl)thiazol-4-yl)-5,5-difluorocyclohexane-carboxamide]",0.5,49
"Cc1ccc(-c2nc([C@@H]3CC[C@H](F)C[C@H]3C(=O)NC3(C#N)CC3)c(-c3ccc(N4CCOCC4)cc3)s2)nn1 [Example 216, (1R,2R,5S)-N-(1-cyanocyclopropyl)-5-fluoro-2-(2-(6-methylpyridazin-3-yl)-5-(4-morpholinophenyl)thiazol-4-yl)cyclohexane-carboxamide]",7.1,2480
"CC(C)(O)c1ccc(-c2nc([C@@H]3CCCC[C@H]3C(=O)NC3(C#N)CC3)c(-c3ccc(N4CCS(=O)(=O)CC4)cc3)s2)cc1 [Example 43, (1R,2R)-N-(1-cyanocyclopropyl)-2-(5-(4-(1,1-dioxidothiomorpho-lino)phenyl)-2-(4-(2-hydroxypropan-2-yl)phenyl)thiazol-4-yl)cyclohexane-carboxamide]",1.2,1110
"N#CC1(NC(=O)[C@@H]2CCCC[C@H]2c2nc(N)sc2-c2ccc(N3CCS(=O)(=O)CC3)cc2)CC1 [Example 190, (1R,2R)-2-(2-amino-5-(4-(1,1-dioxidothiomorpho-lino)phenyl)thiazol-4-yl)-N-(1-cyanocyclopropyl) cyclohexanecarbox-amide]",13.2,7410
"Cc1nc([C@@H]2CC[C@H](F)C[C@H]2C(=O)NC2(C#N)CC2)c(-c2ccc(N3CCC(F)(F)CC3)cc2)s1 [Example 240, (1R,2R,5S)-N-(1-cyanocyclopropyl)-2-(5-(4-(4,4-difluoropiperidin-1-yl)phenyl)-2-methylthiazol-4-yl)-5-fluorocyclohexane-carboxamide]",8,7120
"N#CCNC(=O)[C@@H]1CCCC[C@H]1c1nc(C2CC2)sc1-c1ccc(N2CCS(=O)(=O)CC2)cc1 [Example 18, (1R,2R)-N-(cyanomethyl)-2-(2-cyclopropyl-5-(4-(1,1-dioxidothiomorpho-lino)phenyl)thiazol-4-yl)cyclohexane-carboxamide]",1.2,564
"Cc1ccc(-c2nc([C@@H]3CCCC[C@H]3C(=O)NC3(C#N)CC3)c(-c3ccc(N4CCS(=O)(=O)CC4)cc3)s2)nn1 [Example 83, (1R,2R)-N-(1-cyanocyclopropyl)-2-(5-(4-(1,1-dioxidothiomorpho-lino)phenyl)-2-(6-methylpyridazin-3-yl)thiazol-4-yl)cyclohexane-carboxamide]",1.4,1110
"N#CC1(NC(=O)[C@@H]2CCCC[C@H]2c2nc(-c3ccc(F)cn3)sc2-c2ccc(N3CCS(=O)(=O)CC3)cc2)COC1 [Example 211, (1R,2R)-N-(3-cyanooxetan-3-yl)-2-(5-(4-(1,1-dioxidothiomorpho-lino)phenyl)-2-(5-fluoropyridin-2-yl)thiazol-4-yl)cyclohexane-carboxamide]",1.7,289

# Reference: patent US9573913B2, “Cathepsin cysteine protease inhibitors” (Merck Sharp & Dohme Corp., priority 2013, dated 2017)
